Test results: patent publication US10618886B1, “Compounds as neuronal histamine receptor-3 antagonists and uses thereof” (XW LABORATORIES INC., priority 2018, dated 2020)

Assays:
[1] = molecular target: T1, histamine H3 receptor (hH3R) (Homo sapiens (Human), UniProt Q9Y5N1); experiment: [35S]-GTPγS binding assay, antagonist mode, HEK293/Ga15/hH3R membranes; format: biochemical; conditions: agonist R-alpha-methylhistamine 1 μM, 10 points, 3-fold dilution from 1 μM
Description: (§1) The histamine H3 receptors mediate the histamine signals in CNS and peripheral nervous system. Histamine H3 receptors couple directly to a Gi/Go, resulting in subsequent GTPγδ binding. Although GTPγδ binding assays are carried out using membrane preparations in the similar way as radioligand binding assays, these are functional assays and can be used to differentiate agonist, antagonist, and inverse agonist activities. Such assays are carried out using [^35S]-guanosine-5′-O-(3-thio) triphosphate which provides a radioactive ligand with high affinity for G-protein a subunits that is highly resistant to the inherent GTPase activity of a subunits, such that it remains bound for sufficient periods of time to allow counting of radioactivity. The GTPγδ binding assay was performed using HEK293/Ga15/hH3R cell line with high histamine H3 receptors expression to determine H3 receptor GTPγδ binding affinity of representative compounds.
(§2) 1. [^35S]-GTPγδ binding assay for determining antagonist and inverse agonist pharmacological parameters of histamine H3 receptor ligands:
(§3) Experimental procedure: 1) Membrane preparation for HEK293/Ga15/hH3R; 2) Standard binding assay. Briefly, for membrane […], HEK293/Ga15/hH3R cells were grown to confluence, harvested and the cell pellets were suspended in TEL buffer (50 mM Tris-HCl buffer, 1 mM EGTA, 0.1 mM PMSF). Homogenate and centrifuge at 1,000 g for 10 min. Centrifuge the supernatant at 46,000 g for 30 min. Suspend the membrane pellet in 50 mM Tris with 0.32 M sucrose, pH 7.0. Aliquot at 1 mg protein/mL. Keep frozen and store at −80° C. until use. All compounds were prepared by dissolving in DMSO to make 10 mM stock. The 10 mM stock was used as top concentration […] to carry out 10-points, 3-fold dilution scheme using DMSO in a 96-well plate to make the compound dose plate. H3R GTPγδ binding assay was performed as followings: thaw the membrane at 37° C., chill on ice, add GDP and the membrane to assay buffer (50 mM Tris-HCl, 100 mM NaCl, 5 mM MgCl2, pH 7.4, and 0.2%, BSA). Stay on ice for 20 min. […] Add 20 μL [^35S]-GTPγδ (final 200 pM) and incubate at room temperature for 60 min. For antagonist mode: Add 20 μL agonist (R-alpha-methylhistamine, final concentration 1 μM), 20 μL testing compound (final top concentration 1 μM, 3-fold dilution, 10 points), 20 μL [^35S]-GTPγδ (final 200 pM), 140 μL membrane solution (total 200 μL, GDP 10μM, membrane protein 20 μg/well) to the assay plate. Incubate at room temperature for 60 min. Filter the assay plate on GF/C (non-PEI coated) plate to stop the assay. Dry GF/C plate for 1 h. Add 50 μL scintillation fluid and count on the MicroBeta.
(§4) Data Analysis: The CPM values were calculated into % of inhibition with the following formula:
For antagonist mode: % of inhibition=(R-alpha-methyl-histamine control CPM−Compound CPM)/(R-alpha-methyl-histamine control CPM−DMSO control CPM)×100.
(§5) IC50s were calculated using Prism5 with log(inhibitor) vs. response equation.

[2] = molecular target: T1, histamine H3 receptor (hH3R); experiment: [35S]-GTPγS binding assay, inverse agonist mode, HEK293/Ga15/hH3R membranes; format: biochemical; conditions: no agonist, 10 points, 3-fold dilution from 1 μM
Description: as §1, §2, §3, §4
For inverse agonist mode: % of inhibition=(DMSO control CPM−Compound CPM)/(DMSO control CPM−GTP control CPM)×100.
as §5

T1 sequence (Q9Y5N1 whole entry): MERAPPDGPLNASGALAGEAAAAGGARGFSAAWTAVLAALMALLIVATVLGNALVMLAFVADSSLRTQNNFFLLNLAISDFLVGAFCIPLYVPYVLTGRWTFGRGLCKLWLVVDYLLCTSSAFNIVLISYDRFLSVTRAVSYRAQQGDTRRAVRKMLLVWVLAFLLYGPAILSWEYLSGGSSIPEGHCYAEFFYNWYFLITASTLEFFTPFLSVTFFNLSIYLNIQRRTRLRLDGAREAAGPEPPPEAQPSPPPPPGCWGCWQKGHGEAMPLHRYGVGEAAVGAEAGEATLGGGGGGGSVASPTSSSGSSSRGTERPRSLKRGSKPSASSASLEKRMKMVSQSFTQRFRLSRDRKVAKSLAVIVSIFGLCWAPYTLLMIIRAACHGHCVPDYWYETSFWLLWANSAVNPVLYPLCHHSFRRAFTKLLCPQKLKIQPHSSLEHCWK

SMILES	IC50 [1] [nM]	IC50 [2] [nM]
COc1cc(OCCCN2CCCC2)ccc1-n1c(C)nc2ccc(S(F)(F)(F)(F)F)cc2c1=O [VI, 3-(2-methoxy-4-(3-(pyrrolidin-1-yl)propoxy)phenyl)-2-methyl-6-(pentafluorosulfanyl)quinazolin-4(3H)-one]	5.36	5.5
Cc1nc2ccc(S(F)(F)(F)(F)F)cc2c(=O)n1-c1ccc(OCCCN2CCC(C)C2)cc1 (centres unmarked) [VII, 2-methyl-3-(4-(3-(3-methylpyrrolidin-1-yl)propoxy)phenyl)-6-(pentafluorosulfanyl)quinazolin-4(3H)-one]	3.44	10.5
Cc1nc2ccc(S(F)(F)(F)(F)F)cc2c(=O)n1-c1ccc(OC2CCN(C(=O)C3CCOCC3)CC2)cc1 [XXI, 2-methyl-3-(4-((1-(tetrahydro-2H-pyran-4-carbonyl)piperidin-4-yl)oxy)phenyl)-6-(pentafluorosulfanyl)quinazolin-4(3H)-one]	> 1000	286
Cc1nc2ccc(S(F)(F)(F)(F)F)cc2c(=O)n1-c1ccc(OC2CCN(C(=O)C3CCCCC3)CC2)cc1 [XIX, 3-(4-((1-(cyclohexanecarbonyl)piperidin-4-yl)oxy)phenyl)-2-methyl-6-(pentafluorosulfanyl)quinazolin-4(3H)-one]	> 1000	> 1000
Cc1nc2ccc(S(F)(F)(F)(F)F)cc2c(=O)n1-c1ccc(OC2CCN(C(=O)C3CCN(C)CC3)CC2)cc1 [XX, 2-methyl-3-(4-((1-(1-methylpiperidine-4-carbonyl)piperidin-4-yl)oxy)phenyl)-6-(pentafluorosulfanyl)quinazolin-4(3H)-one]	814	50.5
COc1cc(OC2CCN(C(=O)C3CCOCC3)CC2)ccc1-n1c(C)nc2ccc(S(F)(F)(F)(F)F)cc2c1=O [XXII, 3-(2-methoxy-4-((1-(tetrahydro-2H-pyran-4-carbonyl)piperidin-4-yl)oxy)phenyl)-2-methyl-6-(pentafluorosulfanyl)quinazolin-4(3H)-one]	242	229
Cc1nc2ccc(S(F)(F)(F)(F)F)cc2c(=O)n1-c1ccc(OC2CCN(C3CCCC3)CC2)cc1 [XVI]	116	175
